From ChEMBL document CHEMBL1201862, “PubChem BioAssay data set” (2004)
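48-hour exposure; five concentrations; linearly interpolated endpoints. Here, GI50 denotes the concentration required for 50% inhibition of growth.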 Activity calls are given as the source filed them. Cut-off read from the data, not from the text of the source: active = GI50 up to about 1.1 µM and inactive = higher.

Columns and labels:
Assay in all cases: NCI anticancer screen, dose series, 48 h
786-0 = system: 786-0
CCRF-CEM = system: CCRF-CEM
COLO 205 = system: COLO 205
HCT-15 = system: HCT-15
HOP-92 = system: HOP-92
Hs-578T = system: Hs-578T
IGROV-1 = system: IGROV-1
KM12 = system: KM12
MDA-N = system: MDA-N
MOLT-4 = system: MOLT-4
NCI/ADR-RES = system: NCI/ADR-RES
OVCAR-5 = system: OVCAR-5
RXF 393 = system: RXF 393
SF-295 = system: SF-295
SN12C = system: SN12C
SNB-19 = system: SNB-19
SNB-75 = system: SNB-75
SR = system: SR
TK-10 = system: TK-10
LOX IMVI = system: LOX IMVI

SMILES	GI50 (786-0)	GI50 (CCRF-CEM)	GI50 (COLO 205)	GI50 (HCT-15) [µM]	GI50 (HOP-92)	GI50 (Hs-578T)	GI50 (IGROV-1)	GI50 (KM12)	GI50 (MDA-N)	GI50 (MOLT-4)	GI50 (NCI/ADR-RES)	GI50 (OVCAR-5)	GI50 (RXF 393)	GI50 (SF-295)	GI50 (SN12C)	GI50 (SNB-19)	GI50 (SNB-75)	GI50 (SR)	GI50 (TK-10)	GI50 (LOX IMVI)
O=C(Nc1nncs1)NS(=O)(=O)n1cnc2ccccc21	> 100 µM (inactive)	> 100 µM (inactive)	> 100 µM (inactive)	> 100	> 100 µM (inactive)	> 100 µM (inactive)	> 100 µM (inactive)	> 100 µM (inactive)	> 100 µM (inactive)	> 100 µM (inactive)	> 100 µM (inactive)	> 100 µM (inactive)	> 100 µM (inactive)	> 100 µM (inactive)	> 100 µM (inactive)	> 100 µM (inactive)	> 100 µM (inactive)	> 100 µM (inactive)	> 100 µM (inactive)	
Nc1ccccc1.O=P(O)(O)c1ccccc1	> 100 µM (inactive)	> 100 µM (inactive)	> 100 µM (inactive)	> 100	> 100 µM (inactive)	> 100 µM (inactive)	> 100 µM (inactive)	> 100 µM (inactive)	> 100 µM (inactive)		> 100 µM (inactive)	> 100 µM (inactive)	> 100 µM (inactive)	> 100 µM (inactive)	> 100 µM (inactive)	> 100 µM (inactive)	17.6 µM (inactive)	> 100 µM (inactive)	> 100 µM (inactive)	> 100 µM (inactive)
COc1ccc(N2C(=O)C3c4[nH]c5ccccc5c4C4CCC(C(C)C)CC4C3C2=O)cc1 (stereo not drawn)	> 100 µM (inactive)	0.343 µM (active)	> 100 µM (inactive)	> 100	> 100 µM (inactive)	40.7 µM (inactive)	> 100 µM (inactive)	> 100 µM (inactive)	> 100 µM (inactive)	> 100 µM (inactive)	> 100 µM (inactive)	> 100 µM (inactive)		53 µM (inactive)	> 100 µM (inactive)	> 100 µM (inactive)	35.2 µM (inactive)	40.7 µM (inactive)	> 100 µM (inactive)	> 100 µM (inactive)
COC(=O)c1c(C(=O)OC)c2ccccn2c1-c1cc(OC)c(Br)c(=O)o1	> 100 µM (inactive)	> 100 µM (inactive)	> 100 µM (inactive)	> 100		37.2 µM (inactive)	> 100 µM (inactive)	> 100 µM (inactive)	> 100 µM (inactive)	> 100 µM (inactive)	> 100 µM (inactive)	> 100 µM (inactive)	> 100 µM (inactive)	> 100 µM (inactive)	> 100 µM (inactive)	> 100 µM (inactive)	15.1 µM (inactive)	> 100 µM (inactive)	> 100 µM (inactive)	> 100 µM (inactive)
CN(C)CCNS(=O)(=O)c1ccc(N)cc1	> 100 µM (inactive)	> 100 µM (inactive)	> 100 µM (inactive)	> 100	> 100 µM (inactive)	> 100 µM (inactive)	> 100 µM (inactive)	> 100 µM (inactive)	> 100 µM (inactive)	> 100 µM (inactive)	> 100 µM (inactive)	> 100 µM (inactive)	> 100 µM (inactive)	> 100 µM (inactive)	> 100 µM (inactive)	> 100 µM (inactive)	> 100 µM (inactive)	> 100 µM (inactive)	> 100 µM (inactive)	
C=C(C)C1CC2=C(C(=O)OC)C=C(O2)C(C(=C)C)[C@@H]2OC(=O)/C(=C\C1O)[C@H]2N(C)C (stereo partly drawn)	8.05 µM (inactive)	1.6 µM (inactive)	9.4 µM (inactive)	5.97	6.53 µM (inactive)	18.9 µM (inactive)	6.04 µM (inactive)	13.7 µM (inactive)	11.4 µM (inactive)		8.07 µM (inactive)	16.5 µM (inactive)	5.02 µM (inactive)	17.5 µM (inactive)	12.5 µM (inactive)	1.65 µM (inactive)	14.6 µM (inactive)	6.92 µM (inactive)	1.6 µM (inactive)	8.09 µM (inactive)
CCC12CCCN(Cc3ccccc3)C1c1c([nH]c3ccccc13)C(C(=O)OC)C2 (stereo not drawn)	> 10 µM (inactive)	> 10 µM (inactive)	> 10 µM (inactive)	> 10	> 10 µM (inactive)	> 10 µM (inactive)	> 10 µM (inactive)	> 10 µM (inactive)	> 10 µM (inactive)	5.85 µM (inactive)	> 10 µM (inactive)	7.89 µM (inactive)		> 10 µM (inactive)	> 10 µM (inactive)	> 10 µM (inactive)	> 10 µM (inactive)	7.64 µM (inactive)	> 10 µM (inactive)	> 10 µM (inactive)
